Experimental data: patent publication US10647679B2, “N-methyl-D-aspartate receptor (NMDAR) potentiators, pharmaceutical compositions, and uses related thereto” (Emory University, priority 2015, dated 2020)
pEC50: −log10 of the molar value. Where two headings read alike, the source gives them in different places.

Columns and labels:
Format in all cases: cell-based
[1] = molecular target: T1, recombinant rat GluN1/GluN2B (Rattus norvegicus, UniProt Q00960); experiment: Two-electrode voltage-clamp (TEVC) recordings in Xenopus laevis oocytes, GluN1/GluN2B
T1 construct: expressed in transfected cells; host or cells: Xenopus laevis oocytes (Ecocyte) injected with in vitro transcribed cRNA
T1 sequence (Q00960 27-1482, other chains not shown): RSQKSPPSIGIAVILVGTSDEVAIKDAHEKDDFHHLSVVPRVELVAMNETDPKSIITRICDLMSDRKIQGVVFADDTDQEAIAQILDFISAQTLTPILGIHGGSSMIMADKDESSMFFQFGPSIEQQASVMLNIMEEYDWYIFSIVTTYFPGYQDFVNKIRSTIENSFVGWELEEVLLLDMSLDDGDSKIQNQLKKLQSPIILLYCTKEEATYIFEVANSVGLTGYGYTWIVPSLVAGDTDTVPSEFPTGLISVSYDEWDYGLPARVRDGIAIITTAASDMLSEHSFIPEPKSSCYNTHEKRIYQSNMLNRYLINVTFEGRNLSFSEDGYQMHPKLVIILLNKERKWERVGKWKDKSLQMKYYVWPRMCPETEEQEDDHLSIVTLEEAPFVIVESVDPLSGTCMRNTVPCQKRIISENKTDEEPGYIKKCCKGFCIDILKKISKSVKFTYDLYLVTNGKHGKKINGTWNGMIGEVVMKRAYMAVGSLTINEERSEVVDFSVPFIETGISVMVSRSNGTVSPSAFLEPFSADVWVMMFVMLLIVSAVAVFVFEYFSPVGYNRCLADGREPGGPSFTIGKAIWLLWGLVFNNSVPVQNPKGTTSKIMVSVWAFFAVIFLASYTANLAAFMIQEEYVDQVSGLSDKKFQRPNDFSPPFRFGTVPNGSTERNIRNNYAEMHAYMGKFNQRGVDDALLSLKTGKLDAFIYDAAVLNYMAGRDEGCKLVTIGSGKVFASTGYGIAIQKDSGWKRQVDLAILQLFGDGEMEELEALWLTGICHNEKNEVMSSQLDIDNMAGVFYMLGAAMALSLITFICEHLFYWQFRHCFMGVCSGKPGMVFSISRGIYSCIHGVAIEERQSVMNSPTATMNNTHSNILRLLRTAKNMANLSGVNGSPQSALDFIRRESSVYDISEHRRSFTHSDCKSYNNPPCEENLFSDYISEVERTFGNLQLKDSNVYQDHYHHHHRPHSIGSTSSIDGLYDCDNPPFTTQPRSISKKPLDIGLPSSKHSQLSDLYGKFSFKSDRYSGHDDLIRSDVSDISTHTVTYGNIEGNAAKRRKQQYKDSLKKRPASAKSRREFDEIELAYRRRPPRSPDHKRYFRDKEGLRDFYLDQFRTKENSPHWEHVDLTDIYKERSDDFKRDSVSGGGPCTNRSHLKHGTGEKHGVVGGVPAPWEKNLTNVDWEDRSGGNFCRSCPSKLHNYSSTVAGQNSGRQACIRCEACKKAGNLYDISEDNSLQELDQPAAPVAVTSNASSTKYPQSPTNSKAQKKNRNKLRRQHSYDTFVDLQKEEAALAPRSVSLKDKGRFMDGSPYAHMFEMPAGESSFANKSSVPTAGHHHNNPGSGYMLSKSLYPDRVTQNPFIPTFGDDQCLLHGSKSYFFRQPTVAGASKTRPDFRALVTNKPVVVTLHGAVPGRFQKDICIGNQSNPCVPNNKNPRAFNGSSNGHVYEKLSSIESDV
Experimental: (§1) Data are from between 3-26 oocytes from 2-5 frogs for each compound and receptor tested.
(§2) Two-electrode voltage-clamp recordings were performed in Xenopus laevis oocytes (Ecocyte) expressing recombinant rat GluN1/GluN2A, GluN1/GluN2B, GluN1/GluN2C, GluN1/GluN2D. cRNA was transcribed in vitro (Ambion), diluted with nuclease free water, and injected at a ratio of 1:2 GluN1:GluN2 (5-10 ng total cRNA). The oocytes were kept in Barth's solution comprised of (in mM) 88 NaCl, 5 Tris-HCl, 2.4 NaHCO3, 1 KCl, 0.84 MgSO4, 0.41 CaCl2, and 0.33 Ca(NO3)2 at pH 7.4 at 15-17° C. for two to five days before experiments. Oocytes were placed into a perfusion chamber and continually washed with recording solution containing (in mM) 90 NaCl, 1.0 KCl, 0.5 BaCl2, 0.005 EDTA, and 10 HEPES at pH 7.4 (23° C.). Voltage clamp recordings were conducted at a holding potential of −40 mV. All compounds were made as 20 mM stock solutions in DMSO and dissolved to reach the final concentration in recording solution. Final DMSO content was 0.05-0.5% (vol/vol). Some oocytes expressing GluN1/GluN2A were pretreated with […] BAPTA-AM for 10 minutes or injected with […] of 2 mM K-BAPTA to prevent gradual run-up of the current response.

[2] = molecular target: T2, recombinant rat GluN1/GluN2D (Rattus norvegicus, UniProt P35439+Q62645); experiment: Two-electrode voltage-clamp (TEVC) recordings in Xenopus laevis oocytes, GluN1/GluN2D; settings: for pEC50: read-out: EC50 & Max Effect: 2D
T2 construct: expressed in transfected cells; host or cells: Xenopus laevis oocytes (Ecocyte) injected with in vitro transcribed cRNA
T2 sequence (Q62645 28-1323, other chains not shown): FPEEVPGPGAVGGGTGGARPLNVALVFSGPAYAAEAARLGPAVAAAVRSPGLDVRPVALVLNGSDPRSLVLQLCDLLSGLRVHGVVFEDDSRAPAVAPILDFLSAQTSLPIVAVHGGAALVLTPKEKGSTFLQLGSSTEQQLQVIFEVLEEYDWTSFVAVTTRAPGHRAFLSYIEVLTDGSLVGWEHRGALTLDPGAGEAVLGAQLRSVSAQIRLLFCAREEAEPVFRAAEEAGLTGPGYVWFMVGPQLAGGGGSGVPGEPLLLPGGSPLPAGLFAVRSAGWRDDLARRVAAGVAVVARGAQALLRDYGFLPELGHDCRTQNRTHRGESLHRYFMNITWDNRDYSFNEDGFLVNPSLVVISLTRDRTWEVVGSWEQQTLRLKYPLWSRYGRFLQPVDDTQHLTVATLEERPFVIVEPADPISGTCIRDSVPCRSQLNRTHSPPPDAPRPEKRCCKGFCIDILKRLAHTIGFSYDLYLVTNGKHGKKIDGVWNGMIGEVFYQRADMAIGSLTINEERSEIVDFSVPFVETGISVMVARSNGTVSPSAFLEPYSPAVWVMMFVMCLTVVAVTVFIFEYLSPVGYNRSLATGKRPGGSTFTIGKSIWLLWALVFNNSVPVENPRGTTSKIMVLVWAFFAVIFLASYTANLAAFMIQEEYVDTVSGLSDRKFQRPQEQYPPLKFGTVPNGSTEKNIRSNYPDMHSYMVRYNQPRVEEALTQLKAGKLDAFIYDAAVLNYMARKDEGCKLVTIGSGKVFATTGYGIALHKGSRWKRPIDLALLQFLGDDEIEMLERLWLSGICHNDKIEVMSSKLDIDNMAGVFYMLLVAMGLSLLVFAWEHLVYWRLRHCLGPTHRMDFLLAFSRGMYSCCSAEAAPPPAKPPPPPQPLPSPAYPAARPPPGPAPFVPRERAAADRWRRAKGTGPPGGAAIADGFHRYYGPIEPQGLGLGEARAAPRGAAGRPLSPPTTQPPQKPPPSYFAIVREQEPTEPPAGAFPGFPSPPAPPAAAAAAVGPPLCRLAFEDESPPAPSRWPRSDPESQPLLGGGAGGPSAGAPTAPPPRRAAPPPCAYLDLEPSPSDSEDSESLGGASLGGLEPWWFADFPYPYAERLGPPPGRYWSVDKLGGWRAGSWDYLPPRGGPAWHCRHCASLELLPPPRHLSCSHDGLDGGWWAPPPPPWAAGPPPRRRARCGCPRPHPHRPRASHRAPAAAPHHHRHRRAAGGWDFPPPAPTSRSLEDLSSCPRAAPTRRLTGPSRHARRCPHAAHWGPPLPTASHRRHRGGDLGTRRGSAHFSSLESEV
Experimental: as §1, §2

[3] = molecular target: T3, recombinant rat GluN1/GluN2C (Rattus norvegicus, UniProt P35439+Q00961); experiment: Two-electrode voltage-clamp (TEVC) recordings in Xenopus laevis oocytes, GluN1/GluN2C; settings: for pEC50: read-out: EC50 & Max Effect: 2C
T3 construct: expressed in transfected cells; host or cells: Xenopus laevis oocytes (Ecocyte) injected with in vitro transcribed cRNA
T3 sequence (Q00961 20-1237, other chains not shown): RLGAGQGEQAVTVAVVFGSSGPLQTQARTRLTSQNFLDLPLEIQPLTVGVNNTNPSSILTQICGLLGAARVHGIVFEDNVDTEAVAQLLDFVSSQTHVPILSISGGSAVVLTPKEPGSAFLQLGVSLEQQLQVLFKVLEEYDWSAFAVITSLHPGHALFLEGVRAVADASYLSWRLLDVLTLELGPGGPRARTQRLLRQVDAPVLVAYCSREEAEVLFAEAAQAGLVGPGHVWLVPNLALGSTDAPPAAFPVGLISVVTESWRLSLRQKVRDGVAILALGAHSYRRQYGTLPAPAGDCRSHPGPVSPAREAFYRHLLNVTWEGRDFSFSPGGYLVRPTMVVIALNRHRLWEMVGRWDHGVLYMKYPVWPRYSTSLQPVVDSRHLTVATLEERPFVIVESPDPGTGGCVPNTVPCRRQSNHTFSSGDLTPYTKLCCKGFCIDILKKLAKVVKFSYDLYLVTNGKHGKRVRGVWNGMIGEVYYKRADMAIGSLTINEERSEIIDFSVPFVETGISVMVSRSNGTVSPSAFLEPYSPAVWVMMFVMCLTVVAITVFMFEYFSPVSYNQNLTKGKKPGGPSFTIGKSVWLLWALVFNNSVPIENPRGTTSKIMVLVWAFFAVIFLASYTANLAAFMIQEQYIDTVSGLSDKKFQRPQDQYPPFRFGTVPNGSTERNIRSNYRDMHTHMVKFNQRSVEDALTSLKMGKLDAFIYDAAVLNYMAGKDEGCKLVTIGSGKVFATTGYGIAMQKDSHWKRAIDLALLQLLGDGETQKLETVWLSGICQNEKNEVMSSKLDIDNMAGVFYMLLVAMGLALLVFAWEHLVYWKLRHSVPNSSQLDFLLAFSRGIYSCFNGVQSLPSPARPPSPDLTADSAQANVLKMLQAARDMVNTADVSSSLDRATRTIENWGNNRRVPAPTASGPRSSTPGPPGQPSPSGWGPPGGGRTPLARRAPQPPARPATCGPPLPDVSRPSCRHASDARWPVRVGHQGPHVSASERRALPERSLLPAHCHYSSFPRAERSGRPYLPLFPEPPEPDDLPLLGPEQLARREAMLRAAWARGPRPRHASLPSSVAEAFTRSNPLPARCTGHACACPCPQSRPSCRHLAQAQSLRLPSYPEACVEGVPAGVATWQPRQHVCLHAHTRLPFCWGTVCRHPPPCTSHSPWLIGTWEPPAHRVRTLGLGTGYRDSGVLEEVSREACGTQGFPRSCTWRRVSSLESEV
Experimental: as §1, §2

[4] = molecular target: T4, recombinant rat GluN1/GluN2B (Rattus norvegicus, UniProt P35439+Q00960); experiment: Two-electrode voltage-clamp (TEVC) recordings in Xenopus laevis oocytes, GluN1/GluN2B
T4 construct: expressed in transfected cells; host or cells: Xenopus laevis oocytes (Ecocyte) injected with in vitro transcribed cRNA
Experimental: as §1, §2

[5] = molecular target: T5, recombinant rat GluN1/GluN2D (Rattus norvegicus, UniProt Q62645); experiment: Two-electrode voltage-clamp (TEVC) recordings in Xenopus laevis oocytes, GluN1/GluN2D; settings: 30 μM compound; Tables 5-7
T5 construct: expressed in transfected cells; host or cells: Xenopus laevis oocytes (Ecocyte) injected with in vitro transcribed cRNA
T5 sequence (Q62645 28-1323, other chains not shown): as the sequence (Q62645 28-1323, other chains not shown) above
Experimental: as §1, §2

[6] = molecular target: T6, recombinant rat GluN1/GluN2C (Rattus norvegicus, UniProt Q00961); experiment: Two-electrode voltage-clamp (TEVC) recordings in Xenopus laevis oocytes, GluN1/GluN2C; settings: 30 μM compound; Tables 5-7
T6 construct: expressed in transfected cells; host or cells: Xenopus laevis oocytes (Ecocyte) injected with in vitro transcribed cRNA
T6 sequence (Q00961 20-1237, other chains not shown): as the sequence (Q00961 20-1237, other chains not shown) above
Experimental: as §1, §2

[7] = untitled tables after drawing 25 and drawing 36, read-out: EC50 (μM) GluN2D
[8] = untitled tables after drawing 25 and drawing 36, read-out: EC50 (μM) GluN2C
[9] = Tables 11-13, read-out: EC50 & Max Effect: 2D Max (%)
[10] = Tables 11-13, read-out: EC50 & Max Effect: 2C Max (%)
[11] = read-out: EC50 & Max Effect: 2D Max (%)
[12] = read-out: EC50 & Max Effect: 2C Max (%)
[13] = maximum potentiation, response without modulator = 100%, read-out: GluN2D EC50 (μM)/Max %: Max %
[14] = maximum potentiation, response without modulator = 100%, read-out: GluN2C EC50 (μM)/Max %: Max %
[15] = maximum potentiation, response without modulator = 100%, read-out: GluN2B EC50 (μM)/Max %: Max %

COc1ccc(OCC2c3ccc(OC)cc3CCN2C(=O)CCCC(F)(F)F)cc1 (stereo not shown) [1180-252]
GluN2B response % at 30 µM [1]: 96% at 30
EC50 [2, 7]: 14 µM
EC50 [3, 8]: 11 µM

COc1ccc(OCC2c3cc(C)c(C)cc3CCN2C(=O)c2cccc(Br)c2)cc1 (stereo not shown) [drawing 33 R1=Br R2=H R3=H R4=Me R5=Me]
Emax [2, 9]: 211%
Emax [3, 10]: 197%

COc1ccc(OCC2c3ccc(OCc4ccccc4)cc3CCN2C(=O)c2cccc(Br)c2)cc1 (stereo not shown) [drawing 33 R1=Br R2=H R3=H R4=OBn R5=H]
EC50 ([2]; EC50 & Max Effect: 2D (μM)): 0.27 µM
Emax [2, 11]: 219%
EC50 ([3]; EC50 & Max Effect: 2C (μM)): 0.31 µM
Emax [3, 12]: 257%

COc1ccc(OCC2c3ccc(OC)cc3CCN2C(=O)c2ccc(Cl)s2)cc1 (stereo not shown) [1180-239]
EC50 ([4]; untitled tables after drawing 25 and drawing 36, read-out: EC50 (μM) GluN2B): 1.6 µM
EC50 [2, 7]: 1 µM
EC50 [3, 8]: 0.9 µM

COc1ccc(OCC2c3ccc(SCc4ccccc4)cc3CCN2C(=O)c2cccc(Cl)c2)cc1 (stereo not shown) [drawing 33 R1=Cl R2=H R3=H R4=SBn R5=H]
pEC50 ([2]; Tables 11-13): 6.37
Emax [2, 9]: 213%
pEC50 ([3]; Tables 11-13): 6.40
Emax [3, 10]: 226%

CCOc1ccc(OCC2c3ccc(OC(C)C)cc3CCN2C(=S)Nc2cccc(Cl)c2)cc1 (stereo not shown) [1180-210]
Emax [2, 13]: 174%
Emax [3, 14]: 173%

CCOc1ccc(OCC2c3ccc(OC(C)C)cc3CCN2C(=S)c2cccc(Cl)c2)cc1 (stereo not shown) [1180-149]
Emax [4, 15]: 184%
Emax [2, 13]: 145%
Emax [3, 14]: 179%

CCOc1ccc(OCC2c3ccc(OC(C)C)cc3CCN2C(=S)c2cccc(Br)c2)cc1 (stereo not shown) [1180-156]
Emax [4, 15]: 187%
Emax [2, 13]: 130%
Emax [3, 14]: 161%

COc1ccc(OCC2c3ccc(N(C)C)cc3CCN2C(=S)c2cccc(Cl)c2)cc1 (stereo not shown) [1180-167]
Emax [2, 13]: 127%
Emax [3, 14]: 134%

CCOc1ccc(OCC2c3ccc(OC(C)C)cc3CCN2C(=O)c2ccc(F)c(Cl)c2)cc1 (stereo not shown) [1180-144]
Emax [4, 15]: 182%
Emax [2, 13]: 135%
Emax [3, 14]: 175%

CCOc1ccc(OC[C@@H]2c3ccc(OC(C)C)cc3CCN2C(=O)c2cccc(C(F)(F)F)c2)cc1 [(S)-(−)-1180-92]
I30 μM/Icontrol (mean ± SEM, %) GluN2B ([1]; 30 μM compound, Tables 5-7): 207%
EC50 ([4]; fitted when potentiation at 30 μM exceeded 120%, Tables 3, 5-7, read-out: EC50 (max.) (μM %) GluN2B: fitted EC50): 1.9 µM
Emax ([4]; percentage of the initial glutamate (100 μM) and glycine (30 μM) current, read-out: EC50 (max.) (μM %) GluN2B: fitted maximum response): 210%
I30 μM/Icontrol (mean ± SEM, %) GluN2D [5]: 116%
EC50 ([3]; fitted when potentiation at 30 μM exceeded 120%, Tables 3, 5-7, read-out: EC50 (max.) (μM %) GluN2C: fitted EC50): 1.2 µM
Emax ([3]; percentage of the initial glutamate (100 μM) and glycine (30 μM) current, read-out: EC50 (max.) (μM %) GluN2C: fitted maximum response): 141%
I30 μM/Icontrol (mean ± SEM, %) GluN2C [6]: 132%

COc1ccc(OC[C@@H]2c3cc(OC)c(OC)cc3CCN2C(=O)c2cccc(Cl)c2)cc1 [S-1390]
Emax [2, 11]: 299%
EC50 ([3]; EC50 & Max Effect: 2C (μM)): 6.1 µM
Emax [3, 12]: 275%

CCOc1ccc(OCC2c3ccc(OC4CCCC4)cc3CCN2C(=O)c2cccc(F)c2)cc1 (stereo not shown) [1180-112]
pEC50 ([2]; Tables 11-13): 5.38
Emax [2, 9]: 157%
pEC50 ([3]; Tables 11-13): 5.39
Emax [3, 10]: 170%

COc1ccc(OCC2c3ccc(OC)cc3CCN2C(=O)c2ccc(Cl)o2)cc1 (stereo not shown) [1180-234]
GluN2B response % at 30 µM [1]: 107% at 30
EC50 [2, 7]: 5.5 µM
EC50 [3, 8]: 2.6 µM
